# Measurements taken from patent US6696480B2, “Upregulation of type III endothelial cell nitric oxide synthase by agents that disrupt actin cytoskeletal organization” (Brigham and Women's Hospital, Inc., priority 1998, dated 2004).
# Read-outs that look alike come from different tables or passages of the source.
# Key:
# ecNOS protein [1] = test: Overexpression of Rho mutants, immunoblot of ecNOS protein; assay type: cell-based, bovine; details: about 24 h after transfection
# Experimental: For transfection studies, bovine rather than human endothelial cells were used because of their higher transfection efficiency by the calcium-phosphate precipitation method (12% vs <4%) (15). Bovine endothelial cells (60-70% confluent) were transfected with 15 mg of the indicated cDNAs: the insertless vector (pcDNA3), pcDNA3-c-myc-wtRhoA (wildtype RhoA), and pcDNA3-c-myc-N 19RhoA (dominant-negative RhoA mutant) (Gebbink, M et al., J Cell Biol, 1997, 137:1603-1613). As an internal control for transfection efficiency, pCMV. b-Gal plasmid (5 mg) was co-transfected. Preliminary results using b-galactosidase staining indicate that cellular transfection efficiency was approximately 10% to 14%. The b-galactosidase activity was determined by a chemiluminescence assay (Dual-Light, Tropix, Bedford, Mass.) using a Berthold L9501 luminometer. Approximately 24 h after transfection, cells were harvested for immunoblot analyses of ecNOS expression. The ecNOS protein levels were then standardized to the corresponding levels of transfected RhoA expression as determined by antisera to the corresponding c-myc tag.
# ecNOS mRNA = test: Northern blotting of ecNOS steady-state mRNA in endothelial cells; assay type: cell-based, human; design: ecNOS mRNA levels increased to / ecNOS mRNA levels, % of basal levels / effect on basal ecNOS mRNA levels: unit of the concentration uncertain; details: for effect on ecNOS expression (mRNA): 24 hours (FIGS. 9, 11), anaphicoline data not shown
# Experimental: (§1) Equal amounts of total RNA (10-20 mg) were separated by 1.2% formaldehyde-agarose gel electrophoresis and transferred overnight onto Hybond nylon membranes. […] All Northern blots were subjected to stringent washing conditions (0.2× SSC/0.1% SDS at 65° C.) prior to autoradiography. RNA loading was determined by rehybridization with human GAPDH probe.
# RhoA [2] = test: Rho membrane translocation, immunoblot of membrane and cytosol, RhoA; assay type: cell-based, human; details: mevastatin
# Experimental: (§2) Autoradiography was performed as described earlier.
# RhoB [3] = test: Rho GTP-binding activity, immunoprecipitation of [35S]GTP S-labeled RhoB; assay type: cell-based, human; design: RhoB GTP-binding activity: dose or concentration left out as unconfirmed
# Experimental: (§3) The Rho GTP-binding activity was determined by immunoprecipitation of [^35 S]GTP S-labeled Rho. Briefly, membrane and cytosolic proteins were isolated as previously desribed (Liao, J K and Homcy, C J, J Clin Invest, 1993, 92:2168-2172). Proteins (20 mg) from control and treated endothelial cells were incubated for 30 min at 37° C. in a buffer containing [35 S]GTP S (20 nM), GTP (2 mM), MgCl22 (5 mM), EGTA (0.1 mM), NaCl (50 mM), creatinine phosphate (4 mM), phosphocreatinine kinase (5 units), ATP (0.1 mM), dithiothreitol (1 mM), leupeptin ([…]), aprotinin (50 mg/ml), and phenylmethanesulfonyl fluoride (PMSF, 2 mM). The assay was terminated with excess unlabeled GTP S (100 mM).
# (§4) Samples were then resuspended in 100 ml of immunopricipitation buffer containing Triton-X (1%), SDS (0.1%), NaCl (150 mM), EDTA (5 mM), Tris-HCl (25 mM, pH 7.4), leupeptin (10 mg/ml), aprotinin (10 mg/ml), and PMSF (2 mM). […]
# (§5) The pellets were washed four times in a buffer containing HEPES (50 mM, pH 7.4), NaF (100 mM), sodium phosphate (50 mM), NaCl (100 mM), Triton X-100 (1%), and SDS (0.1%). The final pellet containing the immunoprecipitated [35 S]GTP S-labeled Rho proteins was counted in a liquid scintillation counter (LS 1800, Beckman Instruments, Inc. Fullerton, Calif.). Nonspecific activity was determined in the presence of excess unlabeled GTP S (100 mM).
# RhoA [4] = test: Rho GTP-binding activity, immunoprecipitation of [35S]GTP S-labeled RhoA; assay type: cell-based, human; design: RhoA GTP-binding activity: dose or concentration left out as unconfirmed
# Experimental: as §3, §4, §5
# RhoB [5] = test: Rho membrane translocation, immunoblot of membrane and cytosol, RhoB; assay type: cell-based, human; details: mevastatin
# Experimental: as §2
# ecNOS protein [6] = system: ecNOS protein; design: ecNOS protein levels: dose or concentration left out as unconfirmed
# ecNOS = ecNOS activity, LNMA-inhibitable nitrite production (modified nitrite assay); assay type: cell-based, human; details: for nitrite production: L-mevalonate
# [7] = system: G-protein as and b-actin mRNA; test: Northern blotting of G-protein as and b-actin mRNA (selectivity); assay type: cell-based, human; details: normoxic or hypoxic conditions
# Experimental: as §1
# [8] = system: cerebral ischemia, left middle cerebral artery (MCA) occlusion; test: Murine model of cerebral vascular ischemia (MCA occlusion); assay type: in vivo, SV-129 mice; details: lovastatin, at higher relative concentrations (data not shown)
# Description: Ischemia was produced by occluding the left middle cerebral artery (MCA) with a coated 8.0 nylon monofilament under anesthesia as described (Huang, Z et al., J Cereb Blood Flow Metab, 1996, 16:981-987, Huang, Z et al., Science, 1994, 265:1883-1885, Hara, H et al., J Cereb Blood Flow Metab, 1997, 1:515-526). Arterial blood pressure, heart rate, arterial oxygen pressure, and partial pressure of carbon dioxide were monitored as described (Huang, Z et al., J Cereb Blood Flow Metab, 1996, 16:981-987, Huang, Z et al., Science, 1994, 265:1883-1885, Hara, H et al., J Cereb Blood Flow Metab, 1997, 1:515-526). The filaments were withdrawn after 2 hours and after 24 h, mice were either sacrificed or tested for neurological deficits using a well-established, standardized, observer-blinded protocol as described (Huang, Z et al., J Cereb Blood Flow Metab, 1996, 16:981-987, Huang, Z et al., Science, 1994, 265:1883-1885, Hara, H et al., J Cereb Blood Flow Metab, 1997, 1:515-526). The motor deficit score range from 0 (no deficit) to 2 (complete deficit).
# Brains were divided into five coronal 2-mm sections using a mouse brain matrix (RBM-200C, Activated Systems, Ann Arbor, Mich., USA). Infarction volume was quantitated with an image analysis system (M4, St. Catharines, Ontario, Canada) on 2% 2,3,5-triphenyltetrazolium chloride stained 2-mm slices. The levels of serum cholesterol, creatinine and transaminases were determined by the Tufts University Veterinary Diagnostic Laboratory (Grafton, Mass.).
# [9] = mevastatin alone or in combination with GGPP or FPP
# Description for human endothelial cells: Confluent endothelial cells were used for all treatment conditions.
molecule,measurement,setting,value
wtRhoA: c-myc-tagged wildtype RhoA overexpressed by transfection,reduction of basal ecNOS protein expression,ecNOS protein [1],15±4%
anaphicoline,effect on ecNOS expression (mRNA),ecNOS mRNA,do not increase ecNOS expression
"CC[C@H](C)C(=O)O[C@H]1CCC=C2C=C[C@H](C)[C@H](CC[C@@H]3C[C@@H](O)CC(=O)O3)[C@H]21 [mevastatin, Mevastatin]",decrease in membrane localization of RhoA,RhoA [2],60±5%
same,increase in RhoA in the cytosol,RhoA [2],65±4%
same,effect on cytosolic RhoB activity,RhoB [3]; [9],not affected
same,effect on cytosolic RhoA activity,RhoA [4]; [9],not affected
same,potency on a molar basis compared to simvastatin,ecNOS mRNA; upregulation of ecNOS,approximately ten times less potent
same,potency on a molar basis compared with lovastatin,ecNOS mRNA; upregulation of ecNOS,equally potent
same,concentrations that produce cytotoxicity,human endothelial cells,> 50 µM
same,observable adverse effects on cellular morphology / viability,human endothelial cells,no observable adverse effects
same,decrease in membrane localization of RhoB,RhoB [5],78±6%
same,increase in RhoB in the cytosol,RhoB [5],87±7%
C=C1[C@@H](C)[C@H]2[C@H](Cc3ccccc3)NC(=O)[C@]23[C@H](OC(C)=O)/C=C/[C@@](C)(O)C(=O)[C@@H](C)C/C=C/[C@H]3[C@@H]1O [Cytochalasin D],effect on ecNOS expression (mRNA),ecNOS mRNA,upregulation of ecNOS
same,nonspecific cytotoxicity as cause of increased ecNOS expression,human endothelial cells,does not result from nonspecific cytotoxicity
"COC(=O)Nc1nc2cc(C(=O)c3cccs3)ccc2[nH]1 [nocodazole, Methyl-(5-[2-thienylcarbonyl]-1H-benzimidazol-2-yl)carbamate]",effect on ecNOS expression (mRNA),ecNOS mRNA,do not increase ecNOS expression
"CC(C)=CCC/C(C)=C/CC/C(C)=C/CC/C(C)=C/COP(=O)(O)OP(=O)(O)O [GGPP, geranylgeranylpyrophosphate]",RhoA GTP-binding activity,RhoA [4],4.1 ± 0.3 fmol/mg/min
same,effect on basal ecNOS mRNA levels,ecNOS mRNA; GGPP (10 (unit uncertain)) alone,did not significantly affect
same,observable adverse effects on cellular morphology / viability,human endothelial cells,no observable adverse effects
N19RhoA,increase in ecNOS protein levels,ecNOS protein [1],150±5%
L-mevalonate,effect of co-treatment on upregulation of ecNOS expression by simvastatin alone,ecNOS protein [6]; L-mevalonate (100) + simvastatin (1),completely reversed
same,effect on basal ecNOS expression,ecNOS protein [6]; L-mevalonate alone (100),did not have any appreciable effects
same,ecNOS protein levels,"ecNOS protein [6]; L-mevalonic acid (400) co-treatment with simvastatin, hypoxia, 48 h",35±2.4%
same,ecNOS protein levels,"ecNOS protein [6]; L-mevalonic acid alone, cells exposed to hypoxia",25±3.9%
same,nitrite production,ecNOS,"8.6±2.9 nmol/500,000 cells/24 h"
same,nitrite production,ecNOS; 3% O2,"9.6±1.3 nmol/500,000 cells/24 h"
same,observable adverse effects on cellular morphology / viability,human endothelial cells,no observable adverse effects
C3 transferase,increases in ecNOS expression at lower concentrations,ecNOS protein [6],correspondingly smaller increases
same,ecNOS protein levels augmented by,ecNOS protein [6]; 48 h,250±10%
same,nitrite accumulation,ecNOS,"31±2.1 nmol/500,000 cells/24 hours"
same,increase in nitrite accumulation,ecNOS; 24 h,3 fold
same,observable adverse effects on cellular morphology / viability,human endothelial cells,no observable adverse effects
"CC(=O)C(C)=NO [BDM, 2,3-butanedione 2-monoxime]",nonspecific cytotoxicity as cause of increased ecNOS expression,human endothelial cells,does not result from nonspecific cytotoxicity
CC[C@H](C)C(=O)O[C@H]1C[C@@H](C)C=C2C=C[C@H](C)[C@H](CC[C@@H]3C[C@@H](O)CC(=O)O3)[C@H]21 [lovastatin],effect on ecNOS expression,ecNOS protein [6]; not chemically-activated statin (10),no effect
same,"concentration giving similar findings on ecNOS activity, compared to that of simvastatin",ecNOS; normoxia and hypoxia,10 fold higher
same,change in G-protein as and b-actin mRNA levels,[7],Neither simvastatin nor lovastatin caused any significant change
same,reduction of cerebral infarct size,[8],also occurred with lovastatin treatment
same,increase in ecNOS mRNA levels compared to ox-LDL alone,"ecNOS mRNA; co-treatment with ox-LDL, lovastatin 10 mmol/L, 24 h",3.6 fold
same,ecNOS message increased to,ecNOS mRNA; lovastatin (10 μM) alone,410±21%
same,ecNOS message increased to,ecNOS mRNA; lovastatin (10 μM) under hypoxia,350±27%
same,increase in ecNOS mRNA levels compared to untreated cells,ecNOS mRNA; lovastatin alone,36%
same,increase in ecNOS mRNA level compared to untreated cells,"ecNOS mRNA; ox-LDL + lovastatin 10 mmol/L, 24 h",40±9%
"CC(C)=CCC/C(C)=C/CC/C(C)=C/COP(=O)(O)OP(=O)(O)O [FPP, farnesylpyrophosphate]",RhoB GTP-binding activity,RhoB [3],2.7 ± 0.5 fmol/mg/min
same,observable adverse effects on cellular morphology / viability,human endothelial cells,no observable adverse effects
